What was measured:
Parameters in all cases: key: 0: normal development; 1: Less damaged; 2: Slightly damaged; 3: Moderately damaged; 4: Severely damaged; 5: All killed
young rice plant = assay: Herbicidal test for paddy field; type: in vivo; conditions: paddy field pot, 500 g/ha dropwise at 1.5 leaf stage of barnyardgrass, 3 weeks, rank vs non-treated
Method in brief: (§1)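 Under flooded conditions (3 cm water over Ube soil), each compound was delivered by pipet as a diluted wettable powder (0.05% surfactant) at 500 g/ha, timed to 1.5-leaf barnyardgrass. Plants stayed 3 weeks in a 25° C glasshouse before injury was graded from 0 (normal) to 5 (all killed).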

barnyardgrass [1] = assay: Herbicidal test for paddy field; type: in vivo, Echinochloa crusgalli; conditions: paddy field pot, 500 g/ha dropwise at 1.5 leaf stage of barnyardgrass, 3 weeks, rank vs non-treated
Method in brief: as §1

monochoria = assay: Herbicidal test for paddy field; type: in vivo, Monochoria vaginalis; conditions: paddy field pot, 500 g/ha dropwise at 1.5 leaf stage of barnyardgrass, 3 weeks, rank vs non-treated
Method in brief: as §1

corn [2] = assay: Soil treatment test for upland field; type: in vivo; conditions: 500 g/ha, glass house 25° C., 3 weeks
Method in brief: (§2)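 Soil treatment, 500 g/ha, sprayed onto soil surface after sowing; alluvial Ube soil; 0.05% surfactant in diluent; glasshouse, avg 25° C, 3 wk; visual score 0–5 (5 = all killed).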

cotton = assay: Soil treatment test for upland field; type: in vivo; conditions: 500 g/ha, glass house 25° C., 3 weeks
Method in brief: as §2

wheat [3] = assay: Soil treatment test for upland field; type: in vivo; conditions: 500 g/ha, glass house 25° C., 3 weeks
Method in brief: as §2

barnyardgrass [4] = assay: Soil treatment test for upland field; type: in vivo, Echinochloa crusgalli; conditions: 500 g/ha, glass house 25° C., 3 weeks
Method in brief: as §2

green foxtail = assay: Soil treatment test for upland field; type: in vivo, Setaria viridis; conditions: 500 g/ha, glass house 25° C., 3 weeks
Method in brief: as §2

common lambsquartes [5] = assay: Soil treatment test for upland field; type: in vivo, Chenopodium album; conditions: 500 g/ha, glass house 25° C., 3 weeks
Method in brief: as §2

livid amaranth [6] = assay: Soil treatment test for upland field; type: in vivo, Amaranthus lividus; conditions: 500 g/ha, glass house 25° C., 3 weeks
Method in brief: as §2

velvetleaf [7] = assay: Soil treatment test for upland field; type: in vivo, Abutilon theophrasti; conditions: 500 g/ha, glass house 25° C., 3 weeks
Method in brief: as §2

corn [8] = assay: Foliar spread test for upland field; type: in vivo; conditions: foliar spray 500 ppm, 3 weeks, rank vs non-treated
Method in brief: (§3)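 Seeds are planted in pots of volcanic ash soil and grown roughly 2 weeks under glass. Foliage then receives a uniform spray of compound at 500 ppm in water with 0.5% surfactant. Herbicidal damage is rated 0–5 after 3 weeks at an average 25° C.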

solgum = assay: Foliar spread test for upland field; type: in vivo; conditions: foliar spray 500 ppm, 3 weeks, rank vs non-treated
Method in brief: as §3

sugar beat = assay: Foliar spread test for upland field; type: in vivo; conditions: foliar spray 500 ppm, 3 weeks, rank vs non-treated
Method in brief: as §3

wheat [9] = assay: Foliar spread test for upland field; type: in vivo; conditions: foliar spray 500 ppm, 3 weeks, rank vs non-treated
Method in brief: as §3

blackgrass = assay: Foliar spread test for upland field; type: in vivo, Alopecurus aegualis; conditions: foliar spray 500 ppm, 3 weeks, rank vs non-treated
Method in brief: (§4)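 Two-week-old glasshouse seedlings on volcanic ash soil were treated by foliar spray at 500 ppm, with 0.5% surfactant in the diluent. Effects were graded visually after three weeks, from 0 for no injury to 5 for complete kill.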

common lambsquartes [10] = assay: Foliar spread test for upland field; type: in vivo, Chenopodium album; conditions: foliar spray 500 ppm, 3 weeks, rank vs non-treated
Method in brief: as §4

livid amaranth [11] = assay: Foliar spread test for upland field; type: in vivo, Amaranthus lividus; conditions: foliar spray 500 ppm, 3 weeks, rank vs non-treated
Method in brief: as §4

velvetleaf [12] = assay: Foliar spread test for upland field; type: in vivo, Abutilon theophrasti; conditions: foliar spray 500 ppm, 3 weeks, rank vs non-treated
Method in brief: as §4

Compound	Effect Young rice plant (young rice plant)	Effect Barnyardgrass (barnyardgrass [1])	Effect Monochoria (monochoria)	Effects Corn (corn [2])	Effects Cotton (cotton)	Effects Wheat (wheat [3])	Effects Barnyardgrass (barnyardgrass [4])	Effects Green foxtail (green foxtail)	Effects Common lambsquarters (common lambsquartes [5])	Effects Livid amaranth (livid amaranth [6])	Effects Velvetleaf (velvetleaf [7])	Effects Corn (corn [8])	Effects Solgum (solgum)	Effects Sugar beat (sugar beat)	Effects Wheat (wheat [9])	Effects Blackgrass (blackgrass)	Effects Common lambsquarters (common lambsquartes [10])	Effects Livid amaranth (livid amaranth [11])	Effects Velvetleaf (velvetleaf [12])
CCC(Oc1cccc(C(F)(F)F)c1)c1nc2cc(F)ccc2o1 (centres unmarked) [Compound 120]	1	4	5	0	0	0	4	5	4	3	3	3	2	5	2	2	4	5	–
CCC(Oc1ccc(F)c(C(F)(F)F)c1)c1nc2cc(Cl)ccc2o1 (centres unmarked) [Compound 139]	2	5	5	2	1	1	3	5	4	5	5	3	2	–	2	2	5	5	3
CCC(Oc1cccc(C(F)(F)F)c1)c1nc2cc(Cl)ccc2o1 (centres unmarked) [Compound 140]	1	5	5	0	0	0	4	5	4	5	1	3	2	3	2	2	4	4	2
CCCC(Oc1cccc(C(F)(F)F)c1)c1nc2cc(Cl)ccc2o1 (centres unmarked) [Compound 142, 1-(5-chlorobenzoxazol-2-yl)-1-(3-(trifluoromethyl)phenoxy)butane]	1	3	5	1	0	1	3	5	5	5	5	3	2	3	3	2	4	4	3
CCC(Oc1ccc(F)c(C(F)(F)F)c1)c1nc2cc(Br)ccc2o1 (centres unmarked) [Compound 165]	2	4	5	2	0	0	5	5	3	5	1	2	2	–	2	3	3	4	3
CCC(Oc1cccc(C(F)(F)F)c1)c1nc2cc(Br)ccc2o1 (centres unmarked) [Compound 166]	1	3	5	0	0	0	4	5	2	5	–	3	1	4	1	1	4	4	2
CCC(Oc1ccc(F)c(C(F)(F)F)c1)c1nc2cc([N+](=O)[O-])ccc2o1 (centres unmarked) [Compound 177]	2	5	5	2	2	2	3	5	4	5	5	2	2	–	2	2	4	5	4
CCC(Oc1ccc(F)c(C(F)(F)F)c1)c1nc2cc(C(F)(F)F)ccc2o1 (centres unmarked) [Compound 197]	3	4	5	2	3	2	5	5	4	5	5	4	2	–	2	4	4	4	3
CCC(Oc1ccc(Cl)c(C(F)(F)F)c1)c1nc2cc(F)ccc2o1 (centres unmarked) [Compound 441]	1	5	5	0	0	1	5	5	4	5	1	2	2	4	2	2	3	3	–
CCC(Oc1cccc(OC(F)(F)F)c1)c1nc2cc(C#N)c(C#N)cc2o1 (centres unmarked) [Compound 527]	2	4	4	2	0	1	4	5	5	5	5	–	1	5	2	2	5	5	3
